Holding throughout (assay): Growth inhibition test (MTT) for cytotoxic properties
Assay [1] relates to HT 29. The format is cell-based, human. The essentials:
(§1)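 IC50 values come from an MTT read at 540 nm (5 h at 37 °C, 5 mg/ml MTT stock), taken on day 3 and day 6. Cells (HT 29, SW 480; 50,000 cells/ml in RPMI/10% FCS) were pre-cultured 1 day, then compound in DMSO was added.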

Assay [2] deals with SW 480. The format is cell-based, human. The essentials: as §1
Assay [3] concerns B 16 F 10. The format is cell-based, mouse. The note with it: Table 1b. The method, then: Growth Inhibition Test for Determination of the Cytotoxic Properties of Glycoconjugates of Batracyline and of Quinolone-a
The human colon cell lines SW 480 and HT 29 (ATCC no. CCL 228 and HBT-38) and the mouse melanoma cell line B 16 F 10 were cultured in Roux dishes in RPMI 1640 medium with addition of 10% FCS. The cultures were then trypsinized and taken up in RPMI plus 10% FCS to a cell count of 50,000 cells/ml. 100 μl of cell suspension/well were introduced into a 96 microwell plate and incubated for 1 day at 37° C. in a CO2 incubating cabinet. A further 100 μl of RPMI medium and 1 μl of dimethyl sulphoxide with the test substances were then added. The growth was checked after day 3 and day 6. 40 μl of MTT solution (3-(4,5-dimethylthiazol-2-yl)-2,5-diphenyltetrazoline bromide) with an initial concentration of 5 mg/ml of H2 O were added to each microwave. The plate was incubated for 5 hours in a CO2 incubating cabinet at 37° C. The medium was then sucked off and 100 μl of i-propanol/well were added. After shaking for 30 minutes with 100 μl of H2 O, the extinction was measured at 540 nm with a Titertek Multiskan MCC/340 (Flow).

Where [4] appears, read: Table 1a, glycoconjugates of batracyline.

Where a name gives a salt, the structure may show the parent alone. Some results are limits rather than exact numbers.

As usually defined, the IC50 is the concentration needed to halve the response being measured. A high value points to weaker potency. Take `CC1OC(Oc2ccc(NC(=S)NC3C=CCC4CN(c5c(F)cc6c(=O)c(C(=O)O)cn(C7CC7)c6c5Cl)CC43)cc2)C(O)C(OCC(=O)O)C1O` (mixture of isomers) [Example 12.12, N-[O-(3-O-Carboxymethyl-β-L-fucosyl)-4hydroxy-phenylamino-thiocarbonyl-quinolone-a, di-sodium salt]: the IC50 in assay [1] (Table 1b) worked out at 13 µM; in assay [2] (Table 1b) it was 8 µM; in assay [3], 0.5 µM.
Turning to `Cc1csc2c(C(=O)O)c(=O)c3cc(F)c(N4CC5C(C)C=CC(NC(=O)C(CCCCN)NC(=S)Nc6ccc(OC7OC(C)C(O)C(OCC(=O)O)C7O)cc6)C5C4)cc3n12` (mixture of isomers) [Example 14.3, N-{N^α -[O-(3-O-Carboxymethyl-β-L-fucosyl)-4-hydroxy-phenylamino-thiocarbonyl]-lysyl}-quinolone-c, di-sodium salt], the IC50 in assay [1] (Table 1b) is 4 µM; in assay [2] (Table 1b) it was 8 µM; in assay [3], 4 µM.
For the compound `C[C@@H]1O[C@H](Oc2ccc(NC(=S)NCCCC[C@H](N)C(=O)N[C@H](C)C(=O)NC3C=CCC4CN(c5c(F)cc6c(=O)c(C(=O)O)cn(C7CC7)c6c5Cl)CC43)cc2)[C@@H](O)[C@H](OCC(=O)O)[C@@H]1O` (stereo partly drawn) [Example 10.1, N-{N^ε -[O(3-O-Carboxymethyl-β-L-fucosyl)-4-hydroxy-phenylamino-thiocarbonyl]-lysyl-D-alanyl}-quinolone-a], the IC50 is greater than 250 µM in assay [1] (Table 1b), 50 µM in assay [2] (Table 1b) and 15 µM in assay [3].
In the same order, the values of `CO[C@H]1[C@H](O)[C@@H](Oc2ccc(NC(=S)NCCCC[C@H](N)C(=O)N[C@@H](C)C(=O)NC3C=CCC4CN(c5c(F)cc6c(=O)c(C(=O)O)cn(C7CC7)c6c5Cl)CC43)cc2)O[C@@H](C)[C@H]1O` (stereo partly drawn) [Example 10.2, N-{N^ε -[O-(3-O-Methyl-β-L-fucosyl)-4-hydroxy-phenylamino-thiocarbonyl]-lysyl-alanyl}-quinolone-a] are 3 µM, 4 µM and 5 µM.
Regarding `CO[C@H]1[C@H](O)[C@@H](Oc2ccc(NC(=S)NCCCC[C@H](N)C(=O)NC3C=CCC4CN(c5c(F)cc6c(=O)c(C(=O)O)cn(C7CC7)c6c5Cl)CC43)cc2)O[C@@H](C)[C@H]1O` (stereo partly drawn) [Example 10.3, N-{N^ε -[O-(3-O-Methyl-β-L-fucosyl)-4-hydroxy-phenylamino-thiocarbonyl]-lysyl}-quinolone-a], the IC50 came out at 4 µM in assay [1] (Table 1b), 5 µM in assay [2] (Table 1b) and 0.7 µM in assay [3].
In the case of `CO[C@H]1[C@H](O)[C@@H](Oc2ccc(NC(=S)N[C@@H](C)C(=O)NC3C=CCC4CN(c5c(F)cc6c(=O)c(C(=O)O)cn(C7CC7)c6c5Cl)CC43)cc2)O[C@@H](C)[C@H]1O` (stereo partly shown) [Example 12.2], the IC50 in assay [2] (Table 1b) amounted to 4 µM; in assay [3] it was 0.8 µM.
On to “N-{N^α,N^ε -Bis-[O-(α-L-rhamnosyl)-4-hydroxy-phenylamino-thiocarbonyl]-lysyl-D- alanyl}-batracyline [Example 6.15]”, for which the IC50 in assay [1] (setting [4]) and in assay [2] (setting [4]) was greater than 250 µM in each case.
For the compound “N-{N^ε -O-(2-O-Methyl-β-L-fucosyl)-4-hydroxy-phenylamino-thiocarbonyl]-lysyl -D-alanyl}-batracyline [Example 3.2]”, the figures for the IC50 in assay [1] (setting [4]) and in assay [2] (setting [4]) were 75 µM and 100 µM, respectively.
On the same counts, the results for “N-{N^ε -[O-(3-O-Carbamoylmethyl-β-L-fucosyl)-4-hydroxy-phenylamino-thiocarbo nyl]-lysyl-D-alanyl}-batracyline, sodium salt [Example 3.10]” are 125 µM and 100 µM.
With “N-{Nα-[O-(β-L-Fucosyl)-4-hydroxy-phenylamino-thiocarbonyl]-lysy l-D-alanyl}-batracyline [Example 4.1]”, the values for the IC50 in assay [1] (setting [4]) and in assay [2] (setting [4]) were 30 µM and 25 µM, respectively.

The values above are taken from US6271342A, “Sugar-modified cytostatics” (Bayer Aktiengesellschaft, priority 1995, dated 2001).
